Measured values: ChEMBL document CHEMBL5257091, “Hydrazinecarbonyl-thiazol-2-acetamides with pronounced apoptotic behavior: synthesis, in vitro/in vivo anti-proliferative activity and molecular modeling simulations” (Bioorg Med Chem Lett, 2023)
pIC50: −log10 of the molar value.

Assays:
HepG2 = assay: Antiproliferative activity against human HepG2 cells assessed as inhibition of cell growth incubated for 24 hrs by MTT assay; assay type: functional, cell-based; details: HepG2, 24 h
HCT-116 = assay: cells; details: Homo sapiens, HCT-116, 24 h
Description: Antiproliferative activity against human HCT-116 cells assessed as inhibition of cell growth incubated for 24 hrs by MTT assay

HEp-2 = assay: Antiproliferative activity against human HEp-2 cells assessed as inhibition of cell growth incubated for 24 hrs by MTT assay; assay type: functional, cell-based; details: HEp-2, 24 h
HeLa [1] = assay: Antiproliferative activity against human HeLa cells assessed as inhibition of cell growth incubated for 24 hrs by MTT assay; assay type: functional, cell-based
MCF7 [2] = assay: Antiproliferative activity against human MCF7 cells assessed as inhibition of cell growth incubated for 24 hrs by MTT assay; assay type: functional, cell-based; details: MCF7, 24 h
[3] = Selectivity index, ratio of IC50 for cytotoxicity against human WI-38 cells to IC50 for antiproliferative activity against human HeLa cells; assay type: toxicity, cell-based; details: WI-38 cells and HeLa cells, read-out: Ratio IC50
[4] = Cytotoxicity against human WI-38 cells assessed as inhibition of cell growth incubated for 24 hrs by MTT assay; assay type: toxicity, cell-based
[5] = Selectivity index, ratio of IC50 for cytotoxicity against human WI-38 cells to IC50 for antiproliferative activity against human MCF7 cells; assay type: toxicity, cell-based; details: WI-38 cells and MCF7 cells, read-out: Ratio IC50
[6] = target: Epidermal growth factor receptor (Homo sapiens, UniProt P00533); assay: Inhibition of EGFR (unknown origin) by fluorimetric assay
[7] = Selectivity index, ratio of IC50 for cytotoxicity against human WI-38 cells to IC50 for antiproliferative activity against human HEp-2 cells; assay type: toxicity, cell-based; details: WI-38 cells and HEp-2 cells, read-out: Ratio IC50
[8] = Selectivity index, ratio of IC50 for cytotoxicity against human WI-38 cells to IC50 for antiproliferative activity against human PC-3 cells; assay type: toxicity, cell-based; details: WI-38 cells and PC-3 cells, read-out: Ratio IC50
Dihydrofolate reductase = target: T1, Dihydrofolate reductase (Homo sapiens, UniProt P00374); assay: Inhibition of DHFR (unknown origin) incubated for 2 to 5 mins by absorbance based analysis
T1 sequence (P00374 whole entry): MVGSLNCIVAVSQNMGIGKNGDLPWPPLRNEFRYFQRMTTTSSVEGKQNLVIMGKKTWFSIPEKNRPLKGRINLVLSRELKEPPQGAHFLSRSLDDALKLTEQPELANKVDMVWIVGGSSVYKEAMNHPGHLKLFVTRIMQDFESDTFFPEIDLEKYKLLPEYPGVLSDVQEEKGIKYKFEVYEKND

PC-3 = assay: Antiproliferative activity against human PC-3 cells assessed as inhibition of cell growth incubated for 24 hrs by MTT assay; assay type: functional, cell-based; details: PC-3, 24 h
[9] = Selectivity index, ratio of IC50 for cytotoxicity against human WI-38 cells to IC50 for antiproliferative activity against human HepG2 cells; assay type: toxicity, cell-based; details: WI-38 cells and HepG2 cells, read-out: Ratio IC50
[10] = Selectivity index, ratio of IC50 for cytotoxicity against human WI-38 cells to IC50 for antiproliferative activity against human HCT-116 cells; assay type: toxicity, cell-based; details: WI-38 cells and HCT-116 cells, read-out: Ratio IC50
HeLa [11] = assay: Induction of cell cycle arrest in human HeLa cells assessed as cell debris incubated for 24 hrs by PI staining based flow cytometry analysis (reference value: 2.13%); assay type: functional
MCF7 [12] = assay: Induction of apoptosis in human MCF7 cells assessed as late apoptotic cells incubated for 24 hrs by annexin V-FITC/PI staining based flow cytometry analysis (reference value: 0.21%); assay type: functional
HeLa [13] = assay: Induction of cell cycle arrest in human HeLa cells assessed as accumulation of cells at G0/G1 phase incubated for 24 hrs by PI staining based flow cytometry analysis (reference value: 61.08%); assay type: functional
MCF7 [14] = assay: Induction of cell cycle arrest in human MCF7 cells assessed as accumulation of cells at G0/G1 phase incubated for 24 hrs by PI staining based flow cytometry analysis (reference value: 52.61%); assay type: functional
MCF7 [15] = assay: Induction of cell cycle arrest in human MCF7 cells assessed as cell aggregates incubated for 24 hrs by PI staining based flow cytometry analysis (reference value: 1.75%); assay type: functional
HeLa [16] = assay: Induction of cell cycle arrest in human HeLa cells assessed as accumulation of cells at G2/M phase incubated for 24 hrs by PI staining based flow cytometry analysis (reference value: 10.38%); assay type: functional
[17] = Toxicity in Swiss albino mouse implanted with mouse Ehrlich cells assessed as reduction in body weight gain at 10 mg/kg, iv administered once daily for 20 days relative to control; assay type: organism-based; set-up: scale not given: the % may be the effect or the level left; details: in vivo, 480 h, time 20 day
[18] = Toxicity in Swiss albino mouse implanted with mouse Ehrlich cells assessed as mean body weight at 10 mg/kg, iv administered once daily for 20 days (reference value: 30 g); assay type: organism-based; details: in vivo, 480 h, time 20 day
MCF7 [19] = assay: Induction of apoptosis in human MCF7 cells assessed as total apoptotic cells incubated for 24 hrs by annexin V-FITC/PI staining based flow cytometry analysis (reference value: 2.11%); assay type: functional
Ehrlich = assay: Antitumor activity against mouse Ehrlich cells implanted in Swiss albino mouse assessed as reduction in tumor volume at 10 mg/kg, iv administered once daily for 20 days relative to control; assay type: functional; set-up: scale not given: the % may be the effect or the level left; details: time 20 day
HeLa [20] = assay: Induction of apoptosis in human HeLa cells assessed as necrotic cells incubated for 24 hrs by annexin V-FITC/PI staining based flow cytometry analysis (reference value: 1.15%); assay type: functional
HeLa [21] = assay: Induction of apoptosis in human HeLa cells assessed as total apoptotic cells incubated for 24 hrs by annexin V-FITC/PI staining based flow cytometry analysis (reference value: 1.85%); assay type: functional
HeLa [22] = assay: Induction of apoptosis in human HeLa cells assessed as early apoptotic cells incubated for 24 hrs by annexin V-FITC/PI staining based flow cytometry analysis (reference value: 0.54%); assay type: functional
MCF7 [23] = assay: Induction of apoptosis in human MCF7 cells assessed as early apoptotic cells incubated for 24 hrs by annexin V-FITC/PI staining based flow cytometry analysis (reference value: 0.62%); assay type: functional
HeLa [24] = assay: Induction of cell cycle arrest in human HeLa cells assessed as accumulation of cells at pre-G1 phase incubated for 24 hrs by PI staining based flow cytometry analysis (reference value: 1.85%); assay type: functional
MCF7 [25] = assay: Induction of cell cycle arrest in human MCF7 cells assessed as cell debris incubated for 24 hrs by PI staining based flow cytometry analysis (reference value: 2.12%); assay type: functional
HeLa [26] = assay: Induction of cell cycle arrest in human HeLa cells assessed as accumulation of cells at S phase incubated for 24 hrs by PI staining based flow cytometry analysis (reference value: 28.54%); assay type: functional
MCF7 [27] = assay: Induction of cell cycle arrest in human MCF7 cells assessed as accumulation of cells at S phase incubated for 24 hrs by PI staining based flow cytometry analysis (reference value: 35.19%); assay type: functional
HeLa [28] = assay: Induction of apoptosis in human HeLa cells assessed as late apoptotic cells incubated for 24 hrs by annexin V-FITC/PI staining based flow cytometry analysis (reference value: 0.16%); assay type: functional
MCF7 [29] = assay: Induction of apoptosis in human MCF7 cells assessed as necrotic cells incubated for 24 hrs by annexin V-FITC/PI staining based flow cytometry analysis (reference value: 1.28%); assay type: functional
HeLa [30] = assay: Induction of cell cycle arrest in human HeLa cells assessed as cell aggregates incubated for 24 hrs by PI staining based flow cytometry analysis (reference value: 1.46%); assay type: functional
MCF7 [31] = assay: Induction of cell cycle arrest in human MCF7 cells assessed as accumulation of cells at pre-G1 phase incubated for 24 hrs by PI staining based flow cytometry analysis (reference value: 2.11%); assay type: functional
MCF7 [32] = assay: Induction of cell cycle arrest in human MCF7 cells assessed as accumulation of cells at G2/M phase incubated for 24 hrs by PI staining based flow cytometry analysis (reference value: 12.2%); assay type: functional

Chain of Epidermal growth factor receptor (P00533 whole entry): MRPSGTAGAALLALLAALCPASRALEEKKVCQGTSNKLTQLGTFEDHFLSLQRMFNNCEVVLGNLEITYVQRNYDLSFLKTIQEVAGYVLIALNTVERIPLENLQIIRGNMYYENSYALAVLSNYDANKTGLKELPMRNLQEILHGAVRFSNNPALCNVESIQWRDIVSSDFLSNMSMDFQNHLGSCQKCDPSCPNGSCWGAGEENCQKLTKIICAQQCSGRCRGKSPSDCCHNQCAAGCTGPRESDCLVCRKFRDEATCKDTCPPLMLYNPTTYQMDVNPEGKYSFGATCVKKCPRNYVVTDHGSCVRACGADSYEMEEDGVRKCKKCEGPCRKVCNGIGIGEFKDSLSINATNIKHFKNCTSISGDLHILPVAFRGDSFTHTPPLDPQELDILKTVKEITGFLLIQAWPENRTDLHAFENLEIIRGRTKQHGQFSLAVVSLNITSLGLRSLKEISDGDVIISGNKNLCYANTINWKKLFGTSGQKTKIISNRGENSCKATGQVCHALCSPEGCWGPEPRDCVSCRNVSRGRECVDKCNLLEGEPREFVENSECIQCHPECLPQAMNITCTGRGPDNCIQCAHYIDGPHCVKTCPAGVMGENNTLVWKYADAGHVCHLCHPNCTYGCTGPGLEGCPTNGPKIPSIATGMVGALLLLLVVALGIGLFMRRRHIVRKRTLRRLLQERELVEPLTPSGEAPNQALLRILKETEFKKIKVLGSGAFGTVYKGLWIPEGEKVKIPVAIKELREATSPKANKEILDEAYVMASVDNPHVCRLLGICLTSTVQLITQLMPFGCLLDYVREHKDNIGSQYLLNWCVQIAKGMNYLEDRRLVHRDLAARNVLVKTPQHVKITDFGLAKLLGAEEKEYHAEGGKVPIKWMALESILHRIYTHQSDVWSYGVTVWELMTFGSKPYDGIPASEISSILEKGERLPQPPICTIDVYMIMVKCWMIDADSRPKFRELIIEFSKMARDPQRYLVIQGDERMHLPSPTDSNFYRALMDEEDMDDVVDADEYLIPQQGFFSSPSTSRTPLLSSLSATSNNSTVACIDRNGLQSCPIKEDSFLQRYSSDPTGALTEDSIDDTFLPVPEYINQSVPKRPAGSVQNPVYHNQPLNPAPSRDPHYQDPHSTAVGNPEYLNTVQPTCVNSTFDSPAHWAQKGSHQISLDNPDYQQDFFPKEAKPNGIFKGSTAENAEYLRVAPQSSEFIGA

CC(=O)NNC(=O)c1csc(NC(C)=O)n1
pIC50 (HepG2): 4.06
pIC50 (HCT-116): 4.16
pIC50 (HEp-2): 4.14
pIC50 (HeLa [1]): 4.24
pIC50 (MCF7 [2]): 4.31

CC(=O)Nc1nc(C(=O)NNC(=O)CCN2CCOCC2)cs1
pIC50 (HepG2): 5.13
selectivity ratio [3]: 14
IC50 at 24 h [4]: 53.5 µM
selectivity ratio [5]: 9.2
pIC50 [6]: 6.84
selectivity ratio [7]: 5.82
pIC50 (HCT-116): 4.88
pIC50 (HEp-2): 5.04
pIC50 (HeLa [1]): 5.42
selectivity ratio [8]: 5.08
pIC50 (Dihydrofolate reductase): 6.80
pIC50 (PC-3): 4.98
selectivity ratio [9]: 7.29
pIC50 (MCF7 [2]): 5.24
selectivity ratio [10]: 4.06

CC(=O)Nc1nc(C(=O)NNC(=O)CN2CCN(C)CC2)cs1
pIC50 (HepG2): 4.08
pIC50 (HCT-116): 4.04
pIC50 (HEp-2): 4.05
pIC50 (HeLa [1]): 4.10
pIC50 (MCF7 [2]): 4.20

CC(=O)Nc1nc(C(=O)NNC(=O)CCl)cs1
pIC50 (HepG2): 4.36
pIC50 (HCT-116): 4.28
pIC50 (HEp-2): 4.24
pIC50 (HeLa [1]): 4.45
pIC50 (PC-3): 4.26
pIC50 (MCF7 [2]): 4.41

CC(=O)Nc1nc(C(=O)NNC(=O)CCN2CCN(C)CC2)cs1
pIC50 (HepG2): 5.01
selectivity ratio [3]: 5.92
IC50 at 24 h [4]: 46.9 µM
selectivity ratio [5]: 5.6
pIC50 [6]: 6.88
selectivity ratio [7]: 4.17
pIC50 (HCT-116): 4.73
pIC50 (HEp-2): 4.95
pIC50 (HeLa [1]): 5.10
selectivity ratio [8]: 3.27
pIC50 (Dihydrofolate reductase): 6.17
pIC50 (PC-3): 4.84
selectivity ratio [9]: 4.76
pIC50 (MCF7 [2]): 5.08
selectivity ratio [10]: 2.54

CCC(=O)NNC(=O)c1csc(NC(C)=O)n1
pIC50 (HepG2): 4.41
pIC50 (HCT-116): 4.37
pIC50 (HEp-2): 4.36
pIC50 (HeLa [1]): 4.57
pIC50 (PC-3): 4.32
pIC50 (MCF7 [2]): 4.48

CC(=O)Nc1nc(C(=O)NNC(=O)CCN2CCCCC2)cs1
pIC50 (HepG2): 5.21
selectivity ratio [3]: 23.9
IC50 at 24 h [4]: 39.9 µM
Activity (HeLa [11]): 2.19%
Activity (MCF7 [12]): 22.72%
selectivity ratio [5]: 8.19
pIC50 [6]: 5.04
selectivity ratio [7]: 5.24
pIC50 (HCT-116): 4.93
Activity (HeLa [13]): 52.72%
Activity (MCF7 [14]): 57.43%
pIC50 (HEp-2): 5.12
Activity (MCF7 [15]): 2.19%
Activity (HeLa [16]): 2.89%
Activity [17]: 18.3%
Activity [18]: 29.4 g
Activity (MCF7 [19]): 36.22%
Activity (Ehrlich): 72.3%
Activity (HeLa [20]): 7.41%
pIC50 (HeLa [1]): 5.78
Activity (HeLa [21]): 45.81%
selectivity ratio [8]: 4.9
Activity (HeLa [22]): 14.01%
Activity (MCF7 [23]): 8.31%
Activity (HeLa [24]): 45.81%
Activity (MCF7 [25]): 1.46%
Activity (HeLa [26]): 44.39%
pIC50 (Dihydrofolate reductase): 6.58
Activity (MCF7 [27]): 38.66%
pIC50 (PC-3): 5.09
Activity (HeLa [28]): 24.39%
Activity (MCF7 [29]): 5.19%
selectivity ratio [9]: 6.43
Activity (HeLa [30]): 1.55%
Activity (MCF7 [31]): 36.22%
pIC50 (MCF7 [2]): 5.31
Activity (MCF7 [32]): 3.91%
selectivity ratio [10]: 3.37

CC(=O)Nc1nc(C(=O)NNC(=O)CCCl)cs1
pIC50 (HEp-2): 4.03
pIC50 (HeLa [1]): 4.06
pIC50 (MCF7 [2]): 4.16

CC(=O)Nc1nc(C(=O)NNC(=O)CCN2CCN(Cc3ccccc3)CC2)cs1
pIC50 (HepG2): 4.54
pIC50 (HCT-116): 4.43
pIC50 (HEp-2): 4.41
pIC50 (HeLa [1]): 4.63
pIC50 (PC-3): 4.46
pIC50 (MCF7 [2]): 4.53

CC(=O)Nc1nc(C(=O)NNC(=O)CN2CCCCC2)cs1
pIC50 (HepG2): 4.91
selectivity ratio [3]: 4.34
IC50 at 24 h [4]: 60.5 µM
selectivity ratio [5]: 3.68
selectivity ratio [7]: 3.07
pIC50 (HCT-116): 4.61
pIC50 (HEp-2): 4.71
pIC50 (HeLa [1]): 4.86
selectivity ratio [8]: 3.35
pIC50 (PC-3): 4.74
selectivity ratio [9]: 4.88
pIC50 (MCF7 [2]): 4.78
selectivity ratio [10]: 2.47

CC(=O)Nc1nc(C(=O)NNC(=O)CN2CCOCC2)cs1
pIC50 (HepG2): 4.68
selectivity ratio [3]: 2.42
IC50 at 24 h [4]: 37.2 µM
selectivity ratio [5]: 2.73
selectivity ratio [7]: 2.17
pIC50 (HCT-116): 4.58
pIC50 (HEp-2): 4.76
pIC50 (HeLa [1]): 4.81
selectivity ratio [8]: 1.25
pIC50 (PC-3): 4.53
selectivity ratio [9]: 1.79
pIC50 (MCF7 [2]): 4.87
selectivity ratio [10]: 1.41

CC(=O)Nc1nc(C(=O)NNC(=O)CN2CCN(Cc3ccccc3)CC2)cs1
pIC50 (HepG2): 4.13
pIC50 (HCT-116): 4.18
pIC50 (HEp-2): 4.07
pIC50 (HeLa [1]): 4.28
pIC50 (PC-3): 4.03
pIC50 (MCF7 [2]): 4.24

COc1cccc2c1C(=O)c1c(O)c3c(c(O)c1C2=O)C[C@@](O)(C(=O)CO)C[C@@H]3O[C@H]1C[C@H](N)[C@H](O)[C@H](C)O1 [DOXORUBICIN]
Activity [17]: 25%
Activity [18]: 27 g
Activity (Ehrlich): 78.9%
